Marks after values point to notes of the source that are not given here. No end group written: not given here.
Key:
[1] = tested on: Masugi nephritis rat model; test: Masugi nephritis rat model; format: in vivo, Sprague Dawley (SD) rats
Text: The anti-serum was then exuded and isolated. Whole blood was collected from 15 healthy SD rats. […] Treatment started on the day of induction. […] Adequate drinking water was supplied.

T lymphocyte [2] = test: T lymphocyte transformation test (ConA, MTT) on spleen cells of treated mice; format: in vivo, BALB/c mice; set-up: key: OD of assay wells divided by OD of control wells; settings: peptide 500 μg/kg/day i.p. 15 days; IFN-γ and IL-2 groups 3×10^5 IU/kg/day; X ± SD
Description: (§1) The above substances were all dissolved in 0.5 ml saline and injected intraperitoneal (i.p.) for 15 continuous days, once per day.
(§2) Ten mice per group. The day after the last test substance administration, the mice were sacrificed by cervical dislocation. The spleen was isolated aseptically and manually dispersed in cold D-Hank's solution using an injection needle. The dispersed cell suspension was further sieved through a 100 gauge 150 μm diameter stainless steel sieve. After centrifugation at 200 g for 10 minutes, the supernatant was discarded. The cell pellet was re-suspended in 10 volume of Tris-NH4Cl buffer and then kept standing still for 10 minutes at room temperature. The suspended cells were collected by centrifugation at 150 g for 10 minutes. The cells were washed 2-4 times with cold D-Hank's solution by re-suspending and collecting by centrifugation with condition as described above. The washed cells were then diluted to the desired cell densities by RPMI-1640 culture medium, containing 10% fetal bovine serum.
(§3) Spleen cells of density 1×10^6/ml were placed onto a 96 wells cell culture plate, 100 μl/well, three parallel wells each of the assay sample and control sample per mouse. To the assay wells, 100 μl/well ConA of 100 μg/ml in RPMI-1640 was added, and 100 μl/well plain RPMI-1640 was used for the controls. The cells were incubated for 66 hrs at 37° C., 5% CO2. The cells were then pelleted by centrifugation at 150 g for 10 minutes.
50 μl/well MTT of 1 mg/ml in RPMI-1640 was added to the cell pellet and the cells re-suspended by shaking for 2 minutes. The incubation was continued for 4 hours. The supernatant was discarded after centrifugation at 150 g for 10 minutes. 120 μl 40 mM HCl-2-propanol was added to the cell pellet and shaken for 3 minutes. to obtain OD570nm of each well referenced at 630 nm. An ELISA reader was used
Each mouse formed three assay wells and three control wells. The Stimulation Index (SI) of each mouse was obtained by first deriving the average OD of the three parallel wells, then dividing the value of the assay wells by the control wells.

NK cell = NK cell cytotoxicity activity test (YAC-1 target cells, MTT) on spleen cells of treated mice; format: in vivo, BALB/c mice; settings: IFN-γ and IL-2 groups 3×10^5 IU/kg/day, X ± SD
Description: as §1, §2
Mice spleen cells were prepared to 4×10^6/ml as described in section 1.1 above. Target cells YAC-1 were brought to log phase and adjusted to 1×10^5/ml. Using a 96 wells cell culture plate, 100 μl mouse spleen cells and 100 μl culture medium were added to the control well containing only the spleen cells; 100 μl target cells and 100 μl culture medium were added to the control well containing only target cells; 100 μl mouse spleen cells and 100 μl target cells were added to the NK activity assay well. Three parallel sets of the above were prepared per mouse.
Samples were centrifuged at 150 g for 10 minutes to collect the cells. The supernatant was discarded and 50 μl/well MTT of 1 mg/ml was added. The reaction mixture was then shaken for 2 minutes, and incubated at 37° C., 5% CO2 for 4 hours. The supernatant was discarded after centrifugation at 150 g for 10 minutes. 120 μl 40 mM HCl-2-propanol was added and shaken for 3 minutes. An ELISA reader was used to obtain OD570nm of each well referenced at 630 nm.

T lymphocyte [3] = test: T lymphocyte IL-2 secretion test (HT-2 cell bioassay of ConA supernatant); format: in vivo, BALB/c mice; settings: IFN-γ and IL-2 groups 3×10^5 IU/kg/day, X ± SD
Description: as §1, §3
HT-2 cells at log phase were collected by centrifugation at 150 g for 10 minutes, and washed three times with cold Hank's solution by re-suspension and centrifugation. The collected HT-2 cells were re-suspended in RPMI-1640 and incubated at 37° C., 5% CO2 for 30 minutes. The cells were further washed twice with RPMI-1640 by re-suspension and centrifugation, and re-suspended to final concentration of 2×10^5/ml with RPMI-1640.
rIL-2 was diluted to the following concentration with RPMI-1640: 500 IU/ml, 250 IU/ml, 125 IU/ml, 62.5 IU/ml, 31.25 IU/ml, and […].
A 96 well cell culture plate was set up with three parallel wells per combination:
Negative control: 100 μl RPMI-1640+100 μl HT-2 cell suspension
rIL-2 standard: 100 μl rIL-2 solution+100 μl HT-2 cell suspension
Assay well: 100 μl diluted supernatant+100 μl HT-2 cell suspension
The plate was incubated at 37° C., 5% CO2 for 68 hours, then centrifuged at 150 g for 15 minutes and the supernatant removed. 100 μl 0.5 mg/ml MTT in RPMI-1640 without phenolsulfonphthalein was added into each well. After shaking for 3-4 minutes to re-suspend the cells, continue to incubate for another 4 hours. Samples were then centrifuged at 150 g for 15 minutes and the supernatant was removed. To each well, 120 μl 40 mM HCl-2-propanol was added, mixed for 3-4 minutes and OD analyzed at 570 nm, referenced at 630 nm with an ELISA plate reader.
The average OD of the three parallel wells of each dilution was taken and plotted against concentration on a semi-log paper, concentration on the X-axis. The concentration at 50% OD saturation was obtained for both the testing supernatant and rIL-2.

T lymphocyte [4] = tested on: T lymphocyte; set-up: species or system BALB/c mice; settings: mouse, in vivo, ip
anti-SRBC antibody = test: Sheep Red Blood Cell (SRBC) hemolysis test, anti-SRBC antibody formation; format: in vivo, BALB/c mice; settings: SRBC on day 12, IFN-γ and IL-2 groups 3×10^5 IU/kg/day, X ± SD
Description: Sheep red blood cells (SRBC) were prepared by collecting blood from cervical vein and put into a sterile flask with glass beads. The flask was shaken for 3 minutes and the blood then mixed with Alsever solution (glucose 2.05 g, NaCl 0.4 g, […] 0.8 g, adjust to 100 ml with distilled water) and stored at 4° C. Immediately before use, samples were centrifuged at 130 g, 5 minutes to collect the SRBC. The cells were washed two times by re-suspension and centrifugation in normal saline. Then the cell pellet was collected by centrifugation at 180 g for 10 minutes and re-suspended in saline to make the final working SRBC suspension, 2% (v/v).
Complement was prepared by adding 10 volumes of fresh Cavy serum into one volume centrifuge packed SRBC, and then gently shaking for 30 minutes at 4° C. The SRBC was removed by centrifugation at 200 g for 10 minutes. 10 volumes of normal saline were added to obtain the working complement solution.
The test substances were administered as described in section 1.1, plus intraperitoneal injection 0.2 ml SRBC per mouse on day 12. On the day after the last test substance administration (day 16), blood was collected from the eye canthus and left at room temperature for one hour for serum exudation. After centrifugation at 200 g for 10 minutes, the serum was diluted by 500 times with normal saline.
To 1 ml diluted mouse serum of each mouse, 0.5 ml SRBC suspension was added. Ice cold. Then 1 ml working complement solution was added and incubated at 37° C. water bath for 10 minutes. Reactions were terminated by ice cold. Samples were then centrifuged at 200 g for 10 minutes to obtain the supernatant.
To 1 ml of this supernatant, 3 ml Drabkin solution was added and left at room temperature for 10 minutes. OD540nm was obtained.
Reference OD540nm was obtained by mixing 0.25 ml SRBC suspension with Drabkin solution to 4 ml and placed at room temperature for 10 minutes before OD540nm was taken. Sample serum index=(OD540nm of test sample[…]reference OD540nm)×500 3. The Effect of Peptides on the Phagocytosis Function of Mononuclear Phagocyte and the Weight of Immune Organ^[8,9].

[5] = immunity organ weight test (thymus gland index, spleen index); format: in vivo, BALB/c mice; settings: IFN-γ and IL-2 groups 3×10^5 IU/kg/day, X ± SD
Description: as §1
(§4) One day after the last test substance administration (day 16), the liver, spleen, and thymus gland were separated and blotted dry with filter paper and weighed. The phagocytosis index α was calculated as below: α=(^3√K)(W÷WLS) key: W: body weight WLS: weight of liver plus spleen Thymus gland index(%)=(thymus weight/body weight)×100% Spleen index(%)=(spleen weight/body weight)×100%

mononuclear phagocyte = test: carbon particle clearance test, phagocytotic activity of mononuclear phagocyte; format: in vivo, BALB/c mice; set-up: key: α = (cube root of K)×(body weight ÷ liver+spleen weight); settings: IFN-γ and IL-2 groups 3×10^5 IU/kg/day, X ± SD
Description: On the next day after the last test substance administration (day 16), the mice were injected with […] body weight India ink (5 times dilution with normal saline) from the tail vein.
One minute and five minutes after Indian ink injection, 20 μl blood was obtained from the eye can thus with a heparinized tubing. The blood was mixed with 2 ml 0.1% w/v Na2CO3 and then OD680nm obtained. The outline clear index K was calculated by the following formula: K=(lgA1−lgA2)÷(t2−t1) Key: A1: OD680nm at first minute A2: OD680nm at fifth minute t2: 5 minutes […]
as §4

[6] = after three weeks of treatment, peptides 50 μg/kg/day i.p., hydrocortisone 3.3 mg/kg/day i.p.
[7] = peptide 0.5 μg/kg/day i.p. 15 days
[8] = peptide 5 μg/kg/day i.p. 15 days
[9] = peptide 50 μg/kg/day i.p. 15 days
[10] = peptide 500 μg/kg/day i.p. 15 days

Compound: C[C@]12CCC(=O)C=C1CC[C@@H]1[C@@H]2[C@@H](O)C[C@@]2(C)[C@H]1CC[C@]2(O)C(=O)CO [hydrocortisone, Hydrocortisone, reference compound]
- Serum creatinine level [1, 6]: 239 ± 107 µmol/L
- growth rate of treated nephritis rats ([1]; peptides 50 μg/kg/day i.p., hydrocortisone 3.3 mg/kg/day i.p.): slower growth rate than normal

Compound: LGMEACGIHETTY [CMS012]
- stimulation index (T lymphocyte transformation) (T lymphocyte [2]): 1.6 ± 0.2
- NK cell cytotoxic activity (NK cell activity index) (NK cell; [7]): 77 ± 6 %
- NK cell cytotoxic activity (NK cell activity index) (NK cell; [8]): 85 ± 7 %
- NK cell cytotoxic activity (NK cell activity index) (NK cell; [9]): 40 ± 9 %
- activity of T lymphocyte in secreting IL-2 (T lymphocyte [3]; [7]): 59 ± 13 IU
- activity of T lymphocyte in secreting IL-2 (T lymphocyte [3]; [8]): 65 ± 16 IU
- activity of T lymphocyte in secreting IFN (T lymphocyte [4]): 86 ± 9 IU
- anti-SRBC antibody formation (sample serum index) (anti-SRBC antibody; [8]): 81 ± 22*^@ Unit
- anti-SRBC antibody formation (sample serum index) (anti-SRBC antibody; [9]): 50 ± 14* Unit
- anti-SRBC antibody formation (sample serum index) (anti-SRBC antibody; [10]): 141 ± 21*^@^ Unit
- weight of thymus gland (thymus gland index) [5, 7]: 0.22 ± 0.06*^ %
- weight of thymus gland (thymus gland index) [5, 8]: 0.27 ± 0.06*^@^ %
- weight of thymus gland (thymus gland index) [5, 9]: 0.26 ± 0.02*^@^ %

Compound: Tyr Ser Phe (YSF; listed as Sus scrofa) [CMS022]
- NK cell cytotoxic activity (NK cell activity index) (NK cell; [7]): 73 ± 11 %
- activity of T lymphocyte in secreting IL-2 (T lymphocyte [3]; [7]): 109 ± 14*^@^ IU
- activity of T lymphocyte in secreting IFN (T lymphocyte [4]): 145 ± 13*^@^ IU
- anti-SRBC antibody formation (sample serum index) (anti-SRBC antibody; [9]): 110 ± 16*^@^ Unit
- anti-SRBC antibody formation (sample serum index) (anti-SRBC antibody; [10]): 68 ± 31* Unit
- phagocytotic index (mononuclear phagocyte; [10]): 7.4 ± 0.6*^@^
- weight of thymus gland (thymus gland index) [5, 7]: 0.21 ± 0.06 %
- weight of thymus gland (thymus gland index) [5, 8]: 0.25 ± 0.04*^@^ %
- weight of thymus gland (thymus gland index) [5, 9]: 0.30 ± 0.03*^@^ %
- weight of thymus gland (thymus gland index) [5, 10]: 0.26 ± 0.05*^@^ %

Compound: VGMGEKDSY [CMS018]
- anti-SRBC antibody formation (sample serum index) (anti-SRBC antibody; [7]): 3 ± 1* Unit
- anti-SRBC antibody formation (sample serum index) (anti-SRBC antibody; [10]): 66 ± 16* Unit
- phagocytotic index (mononuclear phagocyte; [8]): 6.7 ± 1.2
- weight of thymus gland (thymus gland index) [5, 7]: 0.20 ± 0.03 %
- weight of thymus gland (thymus gland index) [5, 8]: 0.24 ± 0.04*^@^ %
- weight of thymus gland (thymus gland index) [5, 9]: 0.23 ± 0.02*^@^ %
- urine protein level ([1]; Week 1, 24 hours urine, peptides 50 μg/kg/day i.p., hydrocortisone 3.3 mg/kg/day i.p.): 7.0 ± 3.7 mg
- urine protein level ([1]; Week 2, 24 hours urine, peptides 50 μg/kg/day i.p., hydrocortisone 3.3 mg/kg/day i.p. (halved after first week)): 5.5 ± 7.9 mg
- Serum creatinine level [1, 6]: 67 ± 1 µmol/L
- spleen index [1, 6]: 3.3 ± 0.8 ×10^−3
- renal pathological microscopic examination ([1]; peptides 50 μg/kg/day i.p. 3 weeks, 6 heaviest kidneys per group): all pathological parameters of all rats were normal
